Laboratory results: ChEMBL document CHEMBL6120994, “Unravelling the potential of natural chelating agents in the control of Staphylococcus aureus and Pseudomonas aeruginosa biofilms” (Eur J Med Chem, 2025)

Legend:
[1] = system: Staphylococcus aureus; assay: Antibiofilm activity against preestablished 24 hr-old Staphylococcus aureus CECT 976 assessed as reduction in biofilm cells culturability by measuring log reduction of CFU of biofilm cells at 10XMTC measured after 24 hrs by visual counting method; type: functional
[2] = system: Pseudomonas aeruginosa; assay: Antibiotic adjuvant activity against Pseudomonas aeruginosa ATCC 10145 assessed as ciprofloxacin MBC at 15.6 ug/ml measured after 24 hrs in presence of ciprofloxacin by checkerboard assay (reference value: 32 ug/ml); type: functional; details: dose 15.6 µg/ml

SMILES	Activity [1]	MBC [2]
O=c1cc(CO)occ1O [KOJIC ACID]	1.9 log10CFU/cm^-2	–
Cc1occc(=O)c1O [MALTOL]	–	32 µg/mL
